How the values were obtained:
Assay in all cases: selective drug sensitivity score (sDSS, relative to normal bone marrow) (sDSS (score)); higher = more potent and effective on the cell line relative to normal bone marrow cells
Details in all cases: 72 h
MOLT-4 = test system: MOLT-4
PF-382 = test system: PF-382
KARPAS-45 = test system: KARPAS-45
KASUMI-2 = test system: KASUMI-2
NALM-6 = test system: NALM-6
HPB-ALL = test system: HPB-ALL
HAL-01 = test system: HAL-01
JURKAT = test system: JURKAT
RPMI-8402 = test system: RPMI-8402
NALL-1 = test system: NALL-1
DND-41 = test system: DND-41
LC4-1 = test system: LC4-1
NALM-16 = test system: NALM-16
KASUMI-9 = test system: KASUMI-9
COG-LL-317 = test system: COG-LL-317
SUP-B15 = test system: SUP-B15
COG-LL-402h = test system: COG-LL-402h
CCRF-HSB2 = test system: CCRF-HSB2
697 = test system: 697
ALL-PO = test system: ALL-PO
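Also: ALL cell lines in 384-well plates, five doses spanning 10,000-fold, each plate scaled between vehicle and 100 µmol/L benzalkonium chloride controls, sDSS an adapted area-under-curve metric.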

| Structure (SMILES) | selective drug sensitivity score (MOLT-4) | selective drug sensitivity score (PF-382) | selective drug sensitivity score (KARPAS-45) | selective drug sensitivity score (KASUMI-2) | selective drug sensitivity score (NALM-6) | selective drug sensitivity score (HPB-ALL) | selective drug sensitivity score (HAL-01) | selective drug sensitivity score (JURKAT) | selective drug sensitivity score (RPMI-8402) | selective drug sensitivity score (NALL-1) | selective drug sensitivity score (DND-41) | selective drug sensitivity score (LC4-1) | selective drug sensitivity score (NALM-16) | selective drug sensitivity score (KASUMI-9) | selective drug sensitivity score (COG-LL-317) | selective drug sensitivity score (SUP-B15) | selective drug sensitivity score (COG-LL-402h) | selective drug sensitivity score (CCRF-HSB2) | selective drug sensitivity score 697 | selective drug sensitivity score (ALL-PO) |
| --- | --- | --- | --- | --- | --- | --- | --- | --- | --- | --- | --- | --- | --- | --- | --- | --- | --- | --- | --- | --- |
| C[C@@H]1COCCN1c1cc(C2([S@](C)(=N)=O)CC2)nc(-c2cc[nH]c3nccc2-3)n1 [AZD6738] (top concentration 25000 nM) | 8.78 | 4.68 | 8.28 | 1.38 | 7.28 | 7.38 | 9.58 | 3.88 | 8.98 | 7.68 | 8.58 | 8.48 | 0.68 | 8.38 | 16 | 9.68 | 7.68 | 4.58 | 11 | 4.58 |
| NC1(C(=O)N[C@@H](CCO)c2ccc(Cl)cc2)CCN(c2ncnc3[nH]ccc23)CC1 [AZD-5363] (top concentration 10000 nM) | 7.42 | 4.42 | 5.82 | 7.32 | 7.12 | 1.82 | 4.02 | 6.72 | 3.52 | 4.72 | -1.88 | 1.22 | 0.12 | 3.52 | 8.82 | 0.42 | 5.62 | 4.02 | 5.32 | 5.82 |
| C[C@@H](Nc1cc(F)cc(F)c1)c1cc(C(=O)N(C)C)cc2c(=O)cc(N3CCOCC3)oc12 [AZD-8186] (top concentration 1000 nM) | -0.06 | 0.54 | 2.14 | 7.54 | 5.14 | 1.94 | 8.14 | -0.26 | 0.44 | 2.34 | -0.26 | -0.26 | -0.06 | 6.04 | -0.26 | -0.26 | 5.14 | 1.64 | 3.64 | 0.34 |
| COc1cccc2c1C(=O)c1c(O)c3c(c(O)c1C2=O)C[C@@](O)(/C(CO)=N/NC(=O)CCCCCN1C(=O)C=CC1=O)C[C@@H]3O[C@H]1C[C@H](N)[C@H](O)[C@H](C)O1 [Aldoxorubicin] (top concentration 1000 nM) | 11.8 | 3.24 | 0.94 | 8.54 | 4.34 | 1.04 | 0.34 | 1.64 | 5.34 | -1.86 | 1.84 | 6.34 | -0.46 | 8.64 | 14.8 | 12.5 | 14.3 | 14.8 | 10.2 | -2.06 |
| COc1cc(Nc2ncc3c(n2)-c2ccc(Cl)cc2C(c2c(F)cccc2OC)=NC3)ccc1C(=O)O [Alisertib] (top concentration 10000 nM) | 21.8 | 14.3 | 27.9 | 18.5 | 20.1 | 14.3 | 17.8 | 11.3 | 10.2 | 16.2 | 0.88 | 25.5 | 0.28 | 25 | 29.6 | 24 | 16.1 | 26.4 | 25 | 15.6 |
| Cc1nc(NC(=O)N2CCC[C@H]2C(N)=O)sc1-c1ccnc(C(C)(C)C(F)(F)F)c1 [Alpelisib] (top concentration 2500 nM) | 0.88 | 0.48 | 0.38 | 1.98 | 3.88 | 2.88 | 0.78 | -0.82 | -0.02 | -0.82 | -0.82 | 0.98 | 1.38 | 1.18 | -0.42 | -0.82 | 4.18 | 1.68 | 1.08 | 3.28 |
| CCN(CC)CCNC(=O)c1c(C)[nH]c(/C=C2\C(=O)Nc3ccc(-c4csc(-c5ccccc5)n4)cc32)c1C [Amcasertib] (top concentration 10000 nM) | -2.4 | 2.7 | 6.4 | 0.8 | 0 | 4.3 | 7.4 | -2.2 | -1.5 | 5.2 | 6.8 | 0.9 | -2.1 | -0.2 | 7.7 | 0.5 | -3.2 | 3.1 | 2.4 | 6.7 |
| COc1c(C)cnc(Cn2cnc3c(Cl)nc(N)nc32)c1C [BIIB021] (top concentration 10000 nM) | 11.8 | 5.78 | 8.88 | 3.88 | 7.88 | 3.58 | 3.98 | 0.48 | 0.68 | 1.08 | 8.58 | 0.98 | 2.38 | -1.22 | 10.2 | 4.48 | 5.78 | 10.8 | 4.28 | 5.88 |
| O=C(/C=C/c1cccc(S(=O)(=O)Nc2ccccc2)c1)NO [Belinostat] (top concentration 10000 nM) | 7.6 | 8.4 | 14.8 | 17.4 | 7.4 | 8.4 | 5.6 | 7.6 | 7.3 | 2.4 | 7.2 | 9.7 | 2.5 | 8.9 | 12.9 | 8.5 | 12.6 | 10.2 | 10.1 | 11.4 |
| Nc1cc(C(F)(F)F)c(-c2cc(N3CCOCC3)nc(N3CCOCC3)n2)cn1 [Buparlisib] (top concentration 10000 nM) | 4.38 | 5.38 | 5.28 | 2.08 | 4.78 | 6.38 | 4.98 | 8.18 | 6.88 | 1.28 | -0.32 | 6.08 | 3.98 | 6.58 | 1.08 | 4.38 | 5.58 | 4.18 | 7.38 | 9.58 |
| CCS(=O)(=O)N1CCN(c2ccc(Nc3ncc(C(N)=O)c(NC4CC4)n3)cc2)CC1 [Cerdulatinib] (top concentration 10000 nM) | -7.46 | -5.16 | -2.36 | -11.9 | 1.44 | -11.9 | -11.9 | -8.66 | -5.56 | -8.76 | 2.54 | -9.46 | -11.4 | -1.36 | -7.66 | 0.04 | -2.56 | 1.34 | -3.66 | 6.04 |
| CC(C)[C@H]1C(=O)N[C@@H](CCCNC(=N)N)C(=O)NCC(=O)N[C@@H](CC(=O)O)C(=O)N[C@H](Cc2ccccc2)C(=O)N1C [Cilengitide] (top concentration 10000 nM) | 0 | 0 | 0 | 0 | 0 | 0 | 6.5 | 0 | 0 | 11.8 | 0 | 0 | 0 | 0 | 0 | 0 | 0 | 0 | 0 | 0 |
| CC(C)(C)c1nc(-c2cccc(NS(=O)(=O)c3c(F)cccc3F)c2F)c(-c2ccnc(N)n2)s1 [Dabrafenib] (top concentration 2500 nM) | -1.52 | 0.38 | 2.18 | -1.52 | -0.52 | 2.98 | 1.18 | 1.08 | -1.12 | -1.42 | -1.52 | 6.48 | -1.52 | 3.58 | 0.18 | 1.88 | 0.48 | 4.48 | 11.5 | -0.22 |
| C[C@H]1O[C@@H](O[C@H]2[C@@H](O)C[C@H](O[C@H]3[C@@H](O)C[C@H](O[C@H]4CC[C@@]5(C)[C@H](CC[C@@H]6[C@@H]5C[C@@H](O)[C@]5(C)[C@@H](C7=CC(=O)OC7)CC[C@]65O)C4)O[C@@H]3C)O[C@@H]2C)C[C@H](O)[C@@H]1O [Digoxin] (top concentration 1000 nM) | 12.3 | 11.1 | 12.3 | 5.9 | 10.5 | 5.5 | 9.9 | 10 | 8.3 | 6.3 | 2.4 | 7.8 | 4.9 | 7.1 | 8.7 | 9.2 | 6.4 | 6.6 | 8.6 | 4 |
| C[C@H](Nc1ncnc2nc[nH]c12)c1cc2cccc(Cl)c2c(=O)n1-c1ccccc1 [Duvelisib] (top concentration 500 nM) | -0.94 | -0.94 | -0.44 | 9.86 | 4.36 | -0.94 | 9.76 | -0.94 | -0.94 | -0.94 | -0.14 | -0.94 | -0.94 | 3.36 | 1.96 | 0.06 | 4.96 | -0.44 | 2.16 | 0.86 |
| NC(=O)/C(=C/n1cnc(-c2cc(C(F)(F)F)cc(C(F)(F)F)c2)n1)c1cncnc1 [Eltanexor] (top concentration 10000 nM) | 11.4 | 8.36 | 8.96 | 16.8 | 10.6 | 5.86 | 5.46 | 9.76 | 9.36 | 2.76 | 12.6 | 8.16 | -0.84 | 11.1 | 14.7 | 13.7 | 12.1 | 12 | 13.2 | 11.4 |
| COC(=O)N[C@@H](C)CNc1nccc(-c2cn(C(C)C)nc2-c2cc(Cl)cc(NS(C)(=O)=O)c2F)n1 [Encorafenib] (top concentration 1000 nM) | 0 | 1.5 | 2.6 | 0 | 3.5 | 1.1 | 0 | 1.7 | 0 | 0 | 0 | 2.9 | 0 | 1.4 | 0 | 0.9 | 0 | 1.8 | 8 | 0 |

Source: the supplement of paper PMC8967900
